Patent US9149536B2, “Conjugated antimicrobial agents” (priority 2009, dated 2015)
≈ marks a conversion by molar mass, not a printed value.

Experiments:
E. coli AG100A = assay: MIC, double-microdilution, E. coli AG100A; type: cell-based, Escherichia coli
E. coli R477-100 = assay: MIC, double-microdilution, E. coli R477-100; type: cell-based, Escherichia coli
E. coli ATCC 25922 = assay: MIC, double-microdilution, E. coli ATCC 25922; type: cell-based, Escherichia coli; details: for MIC E. coli ATCC 25922: Table 4; for MIC E. coli 25922: Table 6
B. subtilis ATCC 6633 = assay: MIC, double-microdilution, B. subtilis ATCC 6633; type: cell-based; details: for MIC B. subtilis ATCC 6633: Table 4; for MIC Bacillus subtilis: Table 6
E. coli AG100B = assay: MIC, double-microdilution, E. coli AG100B; type: cell-based, Escherichia coli
Description: AG100B and AG100A are two kanamycin resistant Escherichia coli strains expressing APH(3′)-I aminoglycoside resistance enzyme.

MRSA ATCC 43300 = assay: microbe, parasite or virus in culture; type: cell-based, S. aureus; details: Table 4
E. coli XL1 blue = assay: microbe, parasite or virus in culture; type: cell-based; details: Table 6
Experimental: (§1) For this purpose, exemplary conjugates, according to some embodiments of the present invention, were tested against five isogenic E. coli strains. E. coli (pSF815) and E. coli (pET9d) are laboratory resistant strains derived by transformation of E. coli XL1 blue (background strain) with the pSF815 and pET9d plasmids, respectively. […] The last two isogenic strains used were E. coli BL21 (background strain) and E. coli (pETSACG1). […] These three enzymes are among the most prevalent modes of resistance found in aminoglycosides resistance strains.
(§2) The MIC ratios were calculated by dividing the MIC value against resistant strain to that against the respective background strain.

E. coli XL1 blue/pET9d = assay: microbe, parasite or virus in culture; type: cell-based; details: Table 6
Experimental: as §1, §2

[1] = Table 4, kanamycin resistant, APH(3′)-I

Molecule	MIC E. coli AG100A (E. coli AG100A; [1])	MIC E. coli R477-100 (E. coli R477-100; Table 4)	MIC E. coli ATCC 25922 (E. coli ATCC 25922)	MIC B. subtilis ATCC 6633 (B. subtilis ATCC 6633)	MIC E. coli AG100B (E. coli AG100B; [1])	MIC MRSA ATCC 43300 (MRSA ATCC 43300)	MIC E. coli AG100A (E. coli AG100A; Table 6)	MIC E. coli XL1 blue (E. coli XL1 blue)	MIC E. coli XL1 blue/pET9d-aph(3′)-Ia (E. coli XL1 blue/pET9d)	MIC E. coli R477-100 (E. coli R477-100; Table 6)	MIC E. coli 25922 (E. coli ATCC 25922)	MIC Bacillus subtilis (B. subtilis ATCC 6633)	MIC E. coli AG100B (E. coli AG100B; Table 6)
NCC1OC(OC2C(C(=O)Nc3ccc(-c4cn(CCOCCN5CCN(c6cc7c(cc6F)c(=O)c(C(=O)O)cn7C6CC6)CC5)nn4)cc3)OC(OC3C(O)C(N)CC(N)C3OC3OC(CN)C(O)C(O)C3N)C2O)C(N)C(O)C1O (centres unmarked) [Compound 1g, N-(4-(1-(2-(2-(ciprofloxacin)ethoxy)ethyl)-1H-1,2,3-triazol-4-yl)-5″-phenyl)neomycin carboxamide]	1.5 µg/mL (≈ 1.28 µM)	24 µg/mL (≈ 20.5 µM)	12 µg/mL (≈ 10.2 µM)	12 µg/mL (≈ 10.2 µM)	12 µg/mL (≈ 10.2 µM)	24 µg/mL (≈ 20.5 µM)							
NCC1OC(OC2C(C(=O)Nc3ccc(-c4cn(CCN5CCN(c6cc7c(cc6F)c(=O)c(C(=O)O)cn7C6CC6)CC5)nn4)cc3)OC(OC3C(O)C(N)CC(N)C3OC3OC(CN)C(O)C(O)C3N)C2O)C(N)C(O)C1O (centres unmarked) [Compound 1a, N-(4-(1-(2-(ciprofloxacin)ethyl)-1H-1,2,3-triazol-4-yl)-5″-phenyl)neomycin]	0.75 µg/mL (≈ 0.665 µM)	12 µg/mL (≈ 10.6 µM)	6 µg/mL (≈ 5.32 µM)	6 µg/mL (≈ 5.32 µM)	24 µg/mL (≈ 21.3 µM)	48 µg/mL (≈ 42.5 µM)							
NCC1OC(OC2C(C(=O)Nc3ccc(-c4cn(CCCCCN5CCN(c6cc7c(cc6F)c(=O)c(C(=O)O)cn7C6CC6)CC5)nn4)cc3)OC(OC3C(O)C(N)CC(N)C3OC3OC(CN)C(O)C(O)C3N)C2O)C(N)C(O)C1O (centres unmarked) [Compound 1d, N-(4-(1-(2-(ciprofloxacin)pentyl)-1H-1,2,3-triazol-4-yl)-5″-phenyl)neomycin carboxamide]	1.5 µg/mL (≈ 1.28 µM)	12 µg/mL (≈ 10.3 µM)	6 µg/mL (≈ 5.13 µM)	12 µg/mL (≈ 10.3 µM)	24 µg/mL (≈ 20.5 µM)	48 µg/mL (≈ 41 µM)							
NCC1OC(OC2C(N)CC(NCc3cn(CC(O)CN4CCN(c5cc6c(cc5F)c(=O)c(C(=O)O)cn6C5CC5)CC4)nn3)C(OC3OC(CO)C(O)C(N)C3O)C2O)C(O)C(O)C1O (centres unmarked) [Compound 11f, 1-(4-(1-N-kanamycinmethyl)-1H-1,2,3-triazol-1-yl)-3-(ciprofloxacin)propan-2-ol]							0.75 µg/mL (≈ 0.787 µM)	3 µg/mL (≈ 3.15 µM)	3 μg/ml	3 µg/mL (≈ 3.15 µM)	1.5 µg/mL (≈ 1.57 µM)	1.5 µg/mL (≈ 1.57 µM)	6 µg/mL (≈ 6.3 µM)
NCC1OC(OC2C(N)CC(NCc3cn(Cc4ccc(CN5CCN(c6cc7c(cc6F)c(=O)c(C(=O)O)cn7C6CC6)CC5)cc4)nn3)C(OC3OC(CO)C(O)C(N)C3O)C2O)C(O)C(O)C1O (centres unmarked) [Compound 11i, 4-(1-N-kanamycinmethyl)-1-(4-((ciprofloxacin)methyl)benzyl)-1H-1,2,3-triazole]							0.75 µg/mL (≈ 0.751 µM)	3 µg/mL (≈ 3 µM)	3 μg/ml	6 µg/mL (≈ 6.01 µM)	6 µg/mL (≈ 6.01 µM)	3 µg/mL (≈ 3 µM)	12 µg/mL (≈ 12 µM)
NCC1OC(OC2C(C(=O)NCc3cn(CCCCCN4CCN(c5cc6c(cc5F)c(=O)c(C(=O)O)cn6C5CC5)CC4)nn3)OC(OC3C(O)C(N)CC(N)C3OC3OC(CN)C(O)C(O)C3N)C2O)C(N)C(O)C1O (centres unmarked) [Compound 1l, N-((1-(4-(ciprofloxacin)pentyl)-1H-1,2,3-triazol-4-yl)-5″-methyl)neomycin carboxamide]	1.5 µg/mL (≈ 1.35 µM)	24 µg/mL (≈ 21.7 µM)	6 µg/mL (≈ 5.41 µM)	12 µg/mL (≈ 10.8 µM)	24 µg/mL (≈ 21.7 µM)	48 µg/mL (≈ 43.3 µM)							
NCC1OC(OC2C(C(=O)NCc3cn(CCN4CCN(c5cc6c(cc5F)c(=O)c(C(=O)O)cn6C5CC5)CC4)nn3)OC(OC3C(O)C(N)CC(N)C3OC3OC(CN)C(O)C(O)C3N)C2O)C(N)C(O)C1O (centres unmarked) [Compound 1j, N-((1-(4-(ciprofloxacin)ethyl)-1H-1,2,3-triazol-4-yl)-5″-methyl)neomycin carboxamide]	1.5 µg/mL (≈ 1.41 µM)	12 µg/mL (≈ 11.3 µM)	6 µg/mL (≈ 5.63 µM)	3 µg/mL (≈ 2.81 µM)	12 µg/mL (≈ 11.3 µM)	24 µg/mL (≈ 22.5 µM)							
NCC1OC(OC2C(C(=O)NCc3cn(CCCN4CCN(c5cc6c(cc5F)c(=O)c(C(=O)O)cn6C5CC5)CC4)nn3)OC(OC3C(O)C(N)CC(N)C3OC3OC(CN)C(O)C(O)C3N)C2O)C(N)C(O)C1O (centres unmarked) [Compound 1k, N-((1-(4-(ciprofloxacin)propyl)-1H-1,2,3-triazol-4-yl)-5″-methyl)neomycin carboxamide]	1.5 µg/mL (≈ 1.39 µM)	12 µg/mL (≈ 11.1 µM)	6 µg/mL (≈ 5.55 µM)	6 µg/mL (≈ 5.55 µM)	12 µg/mL (≈ 11.1 µM)	48 µg/mL (≈ 44.4 µM)							
NCC1OC(OC2C(C(=O)Nc3ccc(-c4cn(CCCCCCN5CCN(c6cc7c(cc6F)c(=O)c(C(=O)O)cn7C6CC6)CC5)nn4)cc3)OC(OC3C(O)C(N)CC(N)C3OC3OC(CN)C(O)C(O)C3N)C2O)C(N)C(O)C1O (centres unmarked) [Compound 1e, N-(4-(1-(2-(ciprofloxacin)hexyl)-1H-1,2,3-triazol-4-yl)-5″-phenyl)neomycin carboxamide]	1.5 µg/mL (≈ 1.27 µM)	6 µg/mL (≈ 5.07 µM)	6 µg/mL (≈ 5.07 µM)	12 µg/mL (≈ 10.1 µM)	12 µg/mL (≈ 10.1 µM)	48 µg/mL (≈ 40.5 µM)							
NCC1OC(OC2C(C(=O)Nc3ccc(-c4cn(CCCN5CCN(c6cc7c(cc6F)c(=O)c(C(=O)O)cn7C6CC6)CC5)nn4)cc3)OC(OC3C(O)C(N)CC(N)C3OC3OC(CN)C(O)C(O)C3N)C2O)C(N)C(O)C1O (centres unmarked) [Compound 1b, N-(4-(1-(2-(ciprofloxacin)propyl)-1H-1,2,3-triazol-4-yl)-5″-phenyl)neomycin carboxamide]	1.5 µg/mL (≈ 1.31 µM)	6 µg/mL (≈ 5.25 µM)	3 µg/mL (≈ 2.63 µM)	6 µg/mL (≈ 5.25 µM)	12 µg/mL (≈ 10.5 µM)	48 µg/mL (≈ 42 µM)							
NCC1OC(OC2C(C(=O)Nc3ccc(-c4cn(CCCCN5CCN(c6cc7c(cc6F)c(=O)c(C(=O)O)cn7C6CC6)CC5)nn4)cc3)OC(OC3C(O)C(N)CC(N)C3OC3OC(CN)C(O)C(O)C3N)C2O)C(N)C(O)C1O (centres unmarked) [Compound 1c, N-(4-(1-(2-(ciprofloxacin)butyl)-1H-1,2,3-triazol-4-yl)-5″-phenyl)neomycin carboxamide]	1.5 µg/mL (≈ 1.3 µM)	12 µg/mL (≈ 10.4 µM)	6 µg/mL (≈ 5.19 µM)	6 µg/mL (≈ 5.19 µM)	24 µg/mL (≈ 20.8 µM)	24 µg/mL (≈ 20.8 µM)							
NCC1OC(OC2C(C(=O)NCc3cn(CCOCCN4CCN(c5cc6c(cc5F)c(=O)c(C(=O)O)cn6C5CC5)CC4)nn3)OC(OC3C(O)C(N)CC(N)C3OC3OC(CN)C(O)C(O)C3N)C2O)C(N)C(O)C1O (centres unmarked) [Compound 1n, N-((1-(2-(2-(ciprofloxacin)ethoxy)ethyl)-1H-1,2,3-triazol-4-yl)-5″-methyl)neomycin carboxamide]	1.5 µg/mL (≈ 1.35 µM)	12 µg/mL (≈ 10.8 µM)	6 µg/mL (≈ 5.4 µM)	12 µg/mL (≈ 10.8 µM)	12 µg/mL (≈ 10.8 µM)	24 µg/mL (≈ 21.6 µM)							
N-(4-(1-(4-((ciprofloxacin)methyl)benzyl)-1H-1,2,3-triazol-4-yl)-5″-phenyl)neomycin carboxamide [Compound 1h]	1.5 µg/mL	6 µg/mL	12 µg/mL	6 µg/mL	12 µg/mL	12 µg/mL							
